ChEMBL document CHEMBL1149622, “Synthesis, resolution, stereochemistry, and molecular modeling of (R)- and (S)-2-acetyl-1-(4'-chlorophenyl)-6,7-dimethoxy-1,2,3,4-tetrahydroisoquinoline AMPAR antagonists” (2007)

How the values were obtained:
[1] = species: Mus musculus; assay: Anticonvulsant activity against audiogenic clonus seizures in DBA/2 mouse after 30 mins; type: functional; details: DBA/2, 0.5 h
[2] = species: Mus musculus; assay: Anticonvulsant activity against audiogenic tonus seizures in DBA/2 mouse after 30 mins; type: functional; details: DBA/2, 0.5 h

| Structure (SMILES) | ED50 [1] [µmol/kg] | ED50 [2] [µmol/kg] |
| --- | --- | --- |
| COc1cc2c(cc1OC)[C@@H](c1ccc(Cl)cc1)N(C(C)=O)CC2 | 4.1 | 2.05 |
| COc1cc2c(cc1OC)[C@H](c1ccc(Cl)cc1)N(C(C)=O)CC2 | 22.4 | 11.2 |
| COc1cc2c(cc1OC)C(c1ccc(Cl)cc1)N(C(C)=O)CC2 (racemic) | 6.51 | 3.53 |
